Our source for the MIC and MIC of erythromycin values is patent publication US11426436B2, “Bacteria-comprising compositions and methods of using the same for treating and/or preventing gastrointestinal, metabolic and/or other diseases” (priority 2015, dated 2022).

Converted amounts (≈) assume the structure as drawn. Like-named read-outs stand apart in the source and are kept apart here.

Assay [1] relates to Intestinimonas strain AF211. In words: Antibiotic sensitivity (MIC) of Intestinimonas strain AF211. The format is cell-based, Intestinimonas butyriciproducens. On the procedure: “Minimum inhibitory concentration” or “MIC” as used herein refers to the lowest concentration of an antimicrobial that will inhibit the visible growth of a microorganism after overnight incubation. Minimum inhibitory concentrations are important in diagnostic laboratories to confirm resistance of microorganisms to an antimicrobial agent and also to monitor the activity of new antimicrobial agents. An MIC is generally regarded as the most basic laboratory measurement of the activity of an antimicrobial agent against an organism.
Rettedal et al. (Nature Comm. (2014), 5:4714) describe the use of antibiotics to isolate and culture bacteria from the human intestinal tract. However, this approach often results in antibiotic-resistant bacteria and these are undesired in formulations aimed for human or animal use.
Strain AF211 had the following sensitivity to various antibiotics: […]

Assay [2] relates to Intestinimonas strain P1C2. The conditions noted are these: against Intestinimonas strain P1C2, described as resistant; cited from earlier work.
The mark [3] stands for this setting: Intestinimonas butyriciproducens, against strain AF211, read-out: MIC.

Consider `CC[C@H]1OC(=O)[C@H](C)[C@@H](O[C@H]2C[C@@](C)(OC)[C@@H](O)[C@H](C)O2)[C@H](C)[C@@H](O[C@@H]2O[C@H](C)C[C@H](N(C)C)[C@H]2O)[C@](C)(O)C[C@@H](C)C(=O)[C@H](C)[C@@H](O)[C@]1(C)O` [Erythromycin], for which the minimal inhibitory concentration (MIC) is 1 µg/mL in assay [1] (Intestinimonas butyriciproducens, against strain AF211, text value, read-out: MIC of erythromycin) and 0.75 to 1 µg/mL (≈ 1.02 to 1.36 µM) in assay [1] (setting [3]). For the same compound, the MIC of erythromycin in assay [2] is 32 µg/mL.
`Cc1onc(-c2ccccc2)c1C(=O)N[C@@H]1C(=O)N2[C@@H]1SC(C)(C)[C@@H]2C(=O)O` [Oxacillin]: in assay [1] (setting [3]), the MIC is 0.38 µg/mL (≈ 0.947 µM).
Still for that read-out and setting: the value for `NC[C@H]1O[C@H](O[C@H]2[C@H](O)[C@@H](O[C@H]3O[C@H](CO)[C@@H](O)[C@H](N)[C@H]3O)[C@H](N)C[C@@H]2N)[C@H](N)C[C@@H]1O` [Tobramycin] was 2 µg/mL (≈ 4.28 µM).
Take `CN[C@H](CC(C)C)C(=O)N[C@H]1C(=O)N[C@@H](CC(N)=O)C(=O)N[C@H]2C(=O)N[C@H]3C(=O)N[C@H](C(=O)N[C@H](C(=O)O)c4cc(O)cc(O)c4-c4cc3ccc4O)[C@H](O)c3ccc(c(Cl)c3)Oc3cc2cc(c3O[C@@H]2O[C@H](CO)[C@@H](O)[C@H](O)[C@H]2O[C@H]2C[C@](C)(N)[C@H](O)[C@H](C)O2)Oc2ccc(cc2Cl)[C@H]1O` [Vancomycin]: in assay [1] (Intestinimonas butyriciproducens, AF211), the MIC was 0.75 µg/mL (≈ 0.518 µM).
With Teicoplanin, the MIC in assay [1] (against strain AF211) came out at 0.047 µg/mL.

A word on the MIC: it is the lowest concentration found to suppress growth.
